Assay results as given in the supplement of paper PMC5908809.

How the values were obtained:
NK-YS (IL-2 2.5 ng/mL) [1] = experiment: percent inhibition of viability; higher = more inhibition; details: 72 h
SNK-6 (IL-2 2.5 ng/mL) [2] = experiment: as above; details: 72 h
[3] = test system: normal primary NK cells, pool 1 (3 donors) (IL-2 2.5 ng/mL); experiment: as above; details: 72 h
DERL-7 (IL-2 2.5 ng/mL) [4] = experiment: as above; details: 72 h
KAI3 (IL-2 2.5 ng/mL) [5] = experiment: as above; details: 72 h
YT (IL-2 2.5 ng/mL) [6] = experiment: as above; details: 72 h
[7] = test system: normal primary NK cells, pool 3 (3 donors) (IL-2 2.5 ng/mL); experiment: as above; details: 72 h
NKL (IL-2 2.5 ng/mL) [8] = experiment: as above; details: 72 h
KHYG-1 (IL-2 2.5 ng/mL) [9] = experiment: as above; details: 72 h
NK-92 (IL-2 2.5 ng/mL) [10] = experiment: as above; details: 72 h
[11] = test system: normal primary NK cells, pool 2 (3 donors) (IL-2 2.5 ng/mL); experiment: as above; details: 72 h
[12] = test system: normal primary NK cells, pool 1 (3 donors), resting (IL-2 0 ng/mL); experiment: as above; details: 72 h
IMC-1 (IL-2 20 ng/mL) [13] = experiment: as above; details: 72 h
[14] = test system: normal NK cells expanded with K562-aAPC; experiment: as above; details: 72 h, IL-2 2.5 ng/mL
Experimental: (§1)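 Drug sensitivity and resistance testing on K562-aAPC-expanded normal NK cells: 5 concentrations (10-fold steps over a 10,000-fold range), 72 h at 37 °C, viability by CellTiter-Glo normalised to DMSO and benzethonium chloride controls; DSS from the fitted curve.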

[15] = test system: normal NK cells expanded with K562-aAPC; experiment: drug sensitivity score (DSS) (DSS units); higher = more sensitive; extreme values may be limits of the assay; details: 72 h; IL-2 2.5 ng/mL
Experimental: as §1

NK-YS (IL-2 2.5 ng/mL) [16] = experiment: as above; details: 72 h
SNK-6 (IL-2 2.5 ng/mL) [17] = experiment: as above; details: 72 h
[18] = test system: normal primary NK cells, pool 1 (3 donors) (IL-2 2.5 ng/mL); experiment: as above; details: 72 h
DERL-7 (IL-2 2.5 ng/mL) [19] = experiment: as above; details: 72 h
KAI3 (IL-2 2.5 ng/mL) [20] = experiment: as above; details: 72 h
YT (IL-2 2.5 ng/mL) [21] = experiment: as above; details: 72 h
[22] = test system: normal primary NK cells, pool 3 (3 donors) (IL-2 2.5 ng/mL); experiment: as above; details: 72 h
NKL (IL-2 2.5 ng/mL) [23] = experiment: as above; details: 72 h
KHYG-1 (IL-2 2.5 ng/mL) [24] = experiment: as above; details: 72 h
NK-92 (IL-2 2.5 ng/mL) [25] = experiment: as above; details: 72 h
[26] = test system: normal primary NK cells, pool 2 (3 donors) (IL-2 2.5 ng/mL); experiment: as above; details: 72 h
[27] = test system: normal primary NK cells, pool 1 (3 donors), resting (IL-2 0 ng/mL); experiment: as above; details: 72 h
IMC-1 (IL-2 20 ng/mL) [28] = experiment: as above; details: 72 h

NC1(c2ccc(-c3nc4ccn5c(=O)[nH]nc5c4cc3-c3ccccc3)cc2)CCC1 [MK-2206] (max concentration tested 1000 nM)
percent inhibition of viability [%]
Details	0.1 nM	1 nM	10 nM	100 nM	1000 nM
DERL-7 (IL-2 2.5 ng/mL) [4]	-1.61	2.78	9.98	34.8	76
IMC-1 (IL-2 20 ng/mL) [13]	-4.35	-1.09	-0.11	-1.78	9.7
KAI3 (IL-2 2.5 ng/mL) [5]	0.47	-1.02	11.1	11.8	17.4
KHYG-1 (IL-2 2.5 ng/mL) [9]	-0.27	8.2	6.87	6.05	14.9
NK-92 (IL-2 2.5 ng/mL) [10]	-0.6	-11	14.7	21.1	42.8
NK-YS (IL-2 2.5 ng/mL) [1]	2	1.38	5.87	2.52	14.5
NKL (IL-2 2.5 ng/mL) [8]	-12.3	-6.86	-5.82	11.8	4.37
SNK-6 (IL-2 2.5 ng/mL) [2]	-2.51	-8.62	3.89	0.46	24.3
YT (IL-2 2.5 ng/mL) [6]	-0.31	-0.89	5.71	2.26	10.1
[3]	-0.91	-7.29	2.37	6.7	21.3
[7]	-11.3	-6.35	-0.77	8.45	19.7
[11]	-7.56	2.73	8.98	12.9	34.8
[12]	11.9	-0.15	13.2	11.8	43
[14]	-2.31	2.49	7.6	28.5	45.6

Details	drug sensitivity score
DERL-7 (IL-2 2.5 ng/mL) [19]	8.28
IMC-1 (IL-2 20 ng/mL) [28]	0
KAI3 (IL-2 2.5 ng/mL) [20]	1.8
KHYG-1 (IL-2 2.5 ng/mL) [24]	0.23
NK-92 (IL-2 2.5 ng/mL) [25]	4.95
NK-YS (IL-2 2.5 ng/mL) [16]	0.39
NKL (IL-2 2.5 ng/mL) [23]	0
SNK-6 (IL-2 2.5 ng/mL) [17]	0.95
YT (IL-2 2.5 ng/mL) [21]	0
[15]	5.95
[18]	1.31
[22]	1.47
[26]	2.88
[27]	3.29

Clc1ccc(Nc2nnc(Cc3ccncc3)c3ccccc23)cc1 [Vatalanib] (max concentration tested 10000 nM)
percent inhibition of viability [%]
Details	1 nM	10 nM	100 nM	1000 nM	10000 nM
DERL-7 (IL-2 2.5 ng/mL) [4]	1.72	5.91	0.68	4.05	0.46
IMC-1 (IL-2 20 ng/mL) [13]	-2.63	0.44	3.66	5.09	30.7
KAI3 (IL-2 2.5 ng/mL) [5]	0.27	-2.4	-1.03	-4.6	20.6
KHYG-1 (IL-2 2.5 ng/mL) [9]	0.78	0.74	8.34	3.67	19.5
NK-92 (IL-2 2.5 ng/mL) [10]	5.05	7.47	10.4	6.67	30.2
NK-YS (IL-2 2.5 ng/mL) [1]	0.51	-0.15	5.11	1.16	15.7
NKL (IL-2 2.5 ng/mL) [8]	-15.8	-12.6	-1.27	4.13	31.1
SNK-6 (IL-2 2.5 ng/mL) [2]	9.43	19.1	24.5	8.51	0.02
YT (IL-2 2.5 ng/mL) [6]	-1.15	0.78	6.42	-0.36	12.6
[3]	-1.16	-14.2	-9.3	-17.4	-10.3
[7]	-15.5	-8.9	-5.65	-2.32	-4.9
[11]	-10.1	-2.12	-4.7	-5.37	2.5
[12]	8.82	-6.33	-5.39	-29.3	12.2
[14]	-5.26	1.3	-1.96	9.03	9.76

Details	drug sensitivity score
DERL-7 (IL-2 2.5 ng/mL) [19]	0
IMC-1 (IL-2 20 ng/mL) [28]	2.18
KAI3 (IL-2 2.5 ng/mL) [20]	0.45
KHYG-1 (IL-2 2.5 ng/mL) [24]	0.55
NK-92 (IL-2 2.5 ng/mL) [25]	2.23
NK-YS (IL-2 2.5 ng/mL) [16]	0.39
NKL (IL-2 2.5 ng/mL) [23]	2.05
SNK-6 (IL-2 2.5 ng/mL) [17]	0
YT (IL-2 2.5 ng/mL) [21]	0.07
[15]	0
[18]	0
[22]	0
[26]	0
[27]	0.01

C=CCN(/C=C1/C(=O)O[C@H](COC)[C@@]2(C)C1=C(O)C(=O)C1=C2[C@H](OC(C)=O)C[C@]2(C)C(=O)CC[C@@H]12)CC=C [Sonolisib] (max concentration tested 10000 nM)
percent inhibition of viability [%]
Details	1 nM	10 nM	100 nM	1000 nM	10000 nM
DERL-7 (IL-2 2.5 ng/mL) [4]	4.44	0.05	7.66	7.97	25.7
IMC-1 (IL-2 20 ng/mL) [13]	-9.13	-2.03	-1.28	-0.72	6.3
KAI3 (IL-2 2.5 ng/mL) [5]	-2.28	-8.79	-2.59	6.95	37.8
KHYG-1 (IL-2 2.5 ng/mL) [9]	-3.26	-9.75	-5.87	-0.67	19.3
NK-92 (IL-2 2.5 ng/mL) [10]	-0.51	-6.14	4.9	21.8	43.3
NK-YS (IL-2 2.5 ng/mL) [1]	-0.83	-2.4	-0.43	13.8	28.2
NKL (IL-2 2.5 ng/mL) [8]	-7.87	-4.63	-1.36	21.9	28.6
SNK-6 (IL-2 2.5 ng/mL) [2]	-13.7	-20.8	-21.5	-12.3	28.8
YT (IL-2 2.5 ng/mL) [6]	-3.75	-4.21	-0.91	9.17	19.1
[3]	-5.92	11.5	7.17	23.3	57
[7]	-11.6	9.95	14.7	4.05	31.2
[11]	-5.83	0.64	8.59	17.3	40.2
[12]	-7.82	8.6	11.1	16.4	59.7
[14]	-4.81	-6.86	-3.23	3.22	31.4

Details	drug sensitivity score
DERL-7 (IL-2 2.5 ng/mL) [19]	1.49
IMC-1 (IL-2 20 ng/mL) [28]	0
KAI3 (IL-2 2.5 ng/mL) [20]	2.98
KHYG-1 (IL-2 2.5 ng/mL) [24]	0.5
NK-92 (IL-2 2.5 ng/mL) [25]	4.58
NK-YS (IL-2 2.5 ng/mL) [16]	2.85
NKL (IL-2 2.5 ng/mL) [23]	3.66
SNK-6 (IL-2 2.5 ng/mL) [17]	0.79
YT (IL-2 2.5 ng/mL) [21]	1.45
[15]	1.91
[18]	5.59
[22]	2.06
[26]	3.83
[27]	5.24

Cc1ccc(Nc2nccc(N(C)c3ccc4c(C)n(C)nc4c3)n2)cc1S(N)(=O)=O [Pazopanib] (max concentration tested 10000 nM)
percent inhibition of viability [%]
Details	1 nM	10 nM	100 nM	1000 nM	10000 nM
DERL-7 (IL-2 2.5 ng/mL) [4]	-0.93	9.12	-0.5	-6.76	-10.4
IMC-1 (IL-2 20 ng/mL) [13]	-4.11	-5.35	2.08	16.6	44.2
KAI3 (IL-2 2.5 ng/mL) [5]	-4.79	-5.2	1.76	10.1	18.6
KHYG-1 (IL-2 2.5 ng/mL) [9]	-2.36	-0.84	4.74	27.1	36.6
NK-92 (IL-2 2.5 ng/mL) [10]	3.54	3.74	11.9	27.6	33.7
NK-YS (IL-2 2.5 ng/mL) [1]	-0.74	0.29	6.42	12.1	15.1
NKL (IL-2 2.5 ng/mL) [8]	-16.9	-17.8	-11.3	13.6	14.8
SNK-6 (IL-2 2.5 ng/mL) [2]	7.81	14.5	36.6	53.3	48.6
YT (IL-2 2.5 ng/mL) [6]	0.54	3.53	8.86	14.9	16.6
[3]	-5.94	2.19	-7.48	-8.52	-1.45
[7]	-10.1	-9.49	-4.17	-3.69	-2.21
[11]	-17.7	-14.4	-13.5	-2.24	2.28
[12]	8.82	5.43	-6.14	-6.41	4.16
[14]	3.24	-2.13	1.77	5.99	11.2

Details	drug sensitivity score
DERL-7 (IL-2 2.5 ng/mL) [19]	0
IMC-1 (IL-2 20 ng/mL) [28]	4.34
KAI3 (IL-2 2.5 ng/mL) [20]	1.17
KHYG-1 (IL-2 2.5 ng/mL) [24]	5.18
NK-92 (IL-2 2.5 ng/mL) [25]	5.68
NK-YS (IL-2 2.5 ng/mL) [16]	1.11
NKL (IL-2 2.5 ng/mL) [23]	1.08
SNK-6 (IL-2 2.5 ng/mL) [17]	15
YT (IL-2 2.5 ng/mL) [21]	1.79
[15]	0.02
[18]	0
[22]	0
[26]	0
[27]	0
